Assay results as given in patent US12583820B2, “Broad spectrum antivirals against coronavirus” (priority 2020, dated 2026).
Where two headings read alike, the source gives them in different places.

Columns and labels:
3CLpro of MERS-CoV = 3CLpro of MERS-CoV (Middle East respiratory syndrome-related coronavirus, UniProt K9N7C7); test: biochemical; format: biochemical
NV 3CLpro = NV 3CLpro (Norovirus, UniProt Q83883); test: biochemical; format: biochemical
[1] = tested on: NV in the replicon harboring cells (HG23 cells); test: microbe, parasite or virus in culture; format: cell-based, norovirus (NV)
3CLpro of SARS-CoV-2 = molecular target: T1, 3CLpro of SARS-CoV-2 (Severe acute respiratory syndrome coronavirus 2, UniProt P0DTD1); test: biochemical; format: biochemical
T1 construct: The codon-optimized cDNA of full length of 3CLpro of SARS-CoV-2; 6xHis (N); made in house; pET-28a(+) vector (points to E. coli, my inference)

MERS-CoV = test: microbe, parasite or virus in culture; format: cell-based
SARS-CoV-2 = test: microbe, parasite or virus in culture; format: cell-based
in vitro = conditions: human
3CLpro of SARS-CoV = 3CLpro of SARS-CoV (Severe acute respiratory syndrome coronavirus, UniProt P0C6X7); format: biochemical; conditions: read-out: IC50 in enzyme assay (μM) SARS-CoV
MHV-1 = test: microbe, parasite or virus in culture; format: cell-based, mouse hepatitis virus (MHV); conditions: Murine coronavirus, read-out: EC50 in cell culture (μM) MHV
FIPV = test: microbe, parasite or virus in culture; format: cell-based; conditions: Alphacoronavirus 1, CRFK, read-out: EC50 in cell culture (μM) FIPV
[2] = Nonspecific cytotoxic effects (CC50), CytoTox 96 kit; conditions: Huh-7, CRFK or CCL1 cells (confluent, 96-well plates)
[3] = tested on: Huh-7, CRFK or CCL1 cells; test: as above; conditions: Huh-7, CRFK, or CCL1 cells, Table 7
[4] = read-out: MERS-CoV IC50 (uM) enzyme
[5] = read-out: MERS-CoV IC50(μM) Enzyme
[6] = Norovirus, HG23, read-out: EC50 (μM) ± SD
[7] = read-out: IC50 in enzyme assay (μM) MERS-CoV
[8] = Middle East respiratory syndrome-related coronavirus, Huh-7, read-out: EC50 in cell culture (μM) MERS-CoV

Chain of 3CLpro of MERS-CoV (K9N7C7 3248-3553 limits assumed): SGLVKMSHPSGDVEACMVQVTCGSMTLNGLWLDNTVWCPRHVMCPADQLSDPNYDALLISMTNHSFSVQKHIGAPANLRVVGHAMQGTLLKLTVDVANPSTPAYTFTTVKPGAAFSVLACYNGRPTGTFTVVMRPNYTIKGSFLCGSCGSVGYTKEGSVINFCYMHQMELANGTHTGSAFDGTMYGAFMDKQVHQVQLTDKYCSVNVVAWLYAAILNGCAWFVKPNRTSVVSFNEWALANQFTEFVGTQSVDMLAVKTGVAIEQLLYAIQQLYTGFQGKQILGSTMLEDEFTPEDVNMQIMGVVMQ
Chain of NV 3CLpro (Q83883 1101-1281): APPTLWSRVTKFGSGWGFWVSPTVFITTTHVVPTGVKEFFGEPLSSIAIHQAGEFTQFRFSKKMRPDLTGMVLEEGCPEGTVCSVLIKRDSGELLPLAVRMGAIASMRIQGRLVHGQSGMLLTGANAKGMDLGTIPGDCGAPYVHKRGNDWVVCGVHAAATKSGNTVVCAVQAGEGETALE

CC(C)(OC(=O)N[C@@H](CC1CCCCC1)C(=O)N[C@H](C=O)C[C@@H]1CCNC1=O)c1cccc(Cl)c1 [Compound 5a (Scheme 2)]
IC50 (3CLpro of MERS-CoV; [4]): 11.5 µM
IC50 (NV 3CLpro; read-out: IC50 (μM) ± SD): 2.9 ± 0.9 µM
EC50 ([1]; read-out: EC50 (μM) ± SD): 3.7 ± 2.3 µM
CC50 (HG23 cells): > 100 µM

CC(C)(COC(=O)N[C@@H](CC1CCCCC1)C(=O)N[C@H](C=O)C[C@@H]1CCNC1=O)c1cccc(Cl)c1 [Compound 5d (Scheme 2)]
IC50 (3CLpro of MERS-CoV; [5]): 1.9 µM
IC50 (NV 3CLpro; read-out: IC50 (μM) ± SD): 0.23 ± 0.04 µM
EC50 ([1]; read-out: EC50 (μM) ± SD): 0.07 ± 0.01 µM
CC50 (HG23 cells): 13.3 ± 1.27 µM

CC(C)C[C@H](NC(=O)OCC(C)(C)c1ccccc1)C(=O)N[C@H](C=O)C[C@@H]1CCNC1=O [Compound 5f (Scheme 2)]
IC50 (3CLpro of MERS-CoV; [5]): 0.8 µM
IC50 (NV 3CLpro; read-out: IC50 (μM) ± SD): 0.45 ± 0.07 µM
EC50 ([1]; read-out: EC50 (μM) ± SD): 0.65 ± 0.07 µM
CC50 (HG23 cells): > 100 µM

CC(C)C[C@H](NC(=O)OCC(C)(C)c1cccc(Cl)c1)C(=O)N[C@H](C=O)C[C@@H]1CCNC1=O [Compound 5g (Scheme 2)]
IC50 (3CLpro of MERS-CoV; [5]): 0.08 µM
IC50 (3CLpro of SARS-CoV-2; read-out: SARS-CoV-2 IC50 (μM) enzyme): 0.3 µM
EC50 (MERS-CoV; read-out: MERS-CoV EC50 (μM) Cell culture): 0.05 µM
EC50 (SARS-CoV-2; read-out: SARS-CoV-2 EC50 (μM) Cell culture): 0.18 µM
IC50 (NV 3CLpro; read-out: IC50 (μM) ± SD): 0.27 ± 0.04 µM
EC50 ([1]; read-out: EC50 (μM) ± SD): 0.17 ± 0.05 µM
CC50 (HG23 cells): > 100 µM

CC(C)(Cc1cccc(Cl)c1)OC(=O)N[C@@H](CC1CCCCC1)C(=O)N[C@H](C=O)C[C@@H]1CCNC1=O [Compound 5h (Scheme 2)]
IC50 (3CLpro of MERS-CoV; [4]): > 10 µM
IC50 (NV 3CLpro; read-out: IC50 (μM) ± SD): 7.7 ± 1.7 µM
EC50 ([1]; read-out: EC50 (μM) ± SD): 5.4 ± 1.1 µM
CC50 (HG23 cells): 15.6 ± 1.8 µM

CC(C)C[C@H](NC(=O)OC(C)(C)Cc1cccc(Cl)c1)C(=O)N[C@H](C=O)C[C@@H]1CCNC1=O [Compound 5i (Scheme 2)]
IC50 (3CLpro of MERS-CoV; [4]): 1.1 µM
IC50 (NV 3CLpro; read-out: IC50 (μM) ± SD): 1.2 ± 0.5 µM
EC50 ([1]; read-out: EC50 (μM) ± SD): 0.9 ± 0.21 µM
CC50 (HG23 cells): > 100 µM

O=C[C@H](C[C@@H]1CCNC1=O)NC(=O)[C@H](CC1CCCCC1)NC(=O)OC1(c2cccc(Cl)c2)CC1 [Compound 5q]
IC50 (NV 3CLpro): 0.28 ± 0.06 µM
EC50 [1, 6]: 0.25 ± 0.07 µM
CC50 (in vitro): 36.5 ± 7.1 µM

CC(C)C[C@H](NC(=O)OC1(c2cccc(Cl)c2)CC1)C(=O)N[C@H](C=O)C[C@@H]1CCNC1=O [Compound 5r]
IC50 (NV 3CLpro): 0.28 ± 0.03 µM
EC50 [1, 6]: 0.65 ± 0.2 µM
CC50 (in vitro): > 100 µM

O=C[C@H](C[C@@H]1CCNC1=O)NC(=O)[C@H](CC1CCCCC1)NC(=O)OC/C=C/c1cccc(Cl)c1 [Compound 5s]
IC50 (NV 3CLpro): 0.14 ± 0.01 µM
EC50 [1, 6]: 0.06 ± 0.01 µM
CC50 (in vitro): 24.1 ± 0.6 µM

CC(C)C[C@H](NC(=O)OC/C=C/c1cccc(Cl)c1)C(=O)N[C@H](C=O)C[C@@H]1CCNC1=O [Compound 5t]
IC50 (NV 3CLpro): 0.15 ± 0.05 µM
EC50 [1, 6]: 0.08 ± 0.01 µM
CC50 (in vitro): > 100 µM

CCCCC1CCC(OC(=O)N[C@@H](CC(C)C)C(=O)N[C@H](C=O)C[C@@H]2CCNC2=O)CC1 (stereo partly drawn) [Compound 6e (Scheme 1), 4-butylcyclohexyl ((S)-4-methyl-1-oxo-1-(((S)-1-oxo-3-((S)-2-oxopyrrolidin-3-yl)propan-2-yl)amino)pentan-2-yl)carbamate]
IC50 (3CLpro of MERS-CoV; [7]): 0.15 µM
IC50 (3CLpro of SARS-CoV): 0.9 µM
IC50 (3CLpro of SARS-CoV-2): 0.8 µM
EC50 (SARS-CoV-2; Severe acute respiratory syndrome coronavirus 2, Vero C1008, read-out: EC50 in cell culture (μM) SARS-CoV-2): 0.1 µM
EC50 (MHV-1): 0.12 µM
EC50 (FIPV): 0.22 µM
CC50 at 72 h [2]: > 100 µM

CC(C)C[C@H](NC(=O)OCCCc1cccc(Cl)c1)C(=O)N[C@@H](C[C@@H]1CCNC1=O)C(O)S(=O)(=O)O (stereo partly shown) [Compound 6n]
IC50 (NV 3CLpro; read-out: IC50 (μM) ± SD): 0.19 ± 0.06 µM
EC50 ([1]; read-out: EC50 (μM) ± SD): 0.09 ± 0.01 µM
CC50 (HG23 cells): > 100 µM

CC(C)C[C@H](NC(=O)OCC(C)(C)Cc1cccc(Cl)c1)C(=O)N[C@@H](C[C@@H]1CCNC1=O)C(O)S(=O)(=O)O (stereo partly shown) [Compound 6o]
IC50 (NV 3CLpro; read-out: IC50 (μM) ± SD): 0.16 ± 0.03 µM
EC50 ([1]; read-out: EC50 (μM) ± SD): 0.15 ± 0.08 µM
CC50 (HG23 cells): > 100 µM

O=C(N[C@@H](CC1CCCCC1)C(=O)N[C@@H](C[C@@H]1CCNC1=O)C(O)S(=O)(=O)O)OC1(c2cccc(Cl)c2)CC1 (stereo partly shown) [Compound 6q]
IC50 (NV 3CLpro; read-out: IC50 (μM) ± SD): 0.27 ± 0.04 µM
EC50 ([1]; read-out: EC50 (μM) ± SD): 0.18 ± 0.04 µM
CC50 (HG23 cells): 42.3 ± 15.6 µM

CC(C)C[C@H](NC(=O)OC1(c2cccc(Cl)c2)CC1)C(=O)N[C@@H](C[C@@H]1CCNC1=O)C(O)S(=O)(=O)O (stereo partly shown) [Compound 6r]
IC50 (NV 3CLpro; read-out: IC50 (μM) ± SD): 0.25 ± 0.08 µM
EC50 ([1]; read-out: EC50 (μM) ± SD): 0.55 ± 0.08 µM
CC50 (HG23 cells): > 100 µM

O=C(N[C@@H](CC1CCCCC1)C(=O)N[C@@H](C[C@@H]1CCNC1=O)C(O)S(=O)(=O)O)OC/C=C/c1cccc(Cl)c1 (stereo partly shown) [Compound 6s]
IC50 (NV 3CLpro; read-out: IC50 (μM) ± SD): 0.16 ± 0.01 µM
EC50 ([1]; read-out: EC50 (μM) ± SD): 0.07 ± 0.02 µM
CC50 (HG23 cells): 28.3 ± 2.8 µM

CC(C)C[C@H](NC(=O)OC/C=C/c1cccc(Cl)c1)C(=O)N[C@@H](C[C@@H]1CCNC1=O)C(O)S(=O)(=O)O (stereo partly shown) [Compound 6t]
IC50 (NV 3CLpro; read-out: IC50 (μM) ± SD): 0.11 ± 0.02 µM
EC50 ([1]; read-out: EC50 (μM) ± SD): 0.08 ± 0.02 µM
CC50 (HG23 cells): > 100 µM

CC(C)C[C@H](NC(=O)OC1CCCCC1)C(=O)N[C@@H](C[C@@H]1CCNC1=O)C(O)S(=O)(=O)[O-].[Na+] (stereo partly drawn) [Compound 7a (Scheme 1), sodium (2S)-2-((S)-2-(((cyclohexyloxy)carbonyl)amino)-4-methylpentanamido)-1-hydroxy-3-((S)-2-oxopyrrolidin-3-yl)propane-1-sulfonate]
IC50 (3CLpro of MERS-CoV; [7]): 0.15 µM
IC50 (3CLpro of SARS-CoV): 3.8 µM
IC50 (3CLpro of SARS-CoV-2): 3.5 µM
EC50 values against MERS-CoV in cell culture (in words) (MERS-CoV): submicromolar
EC50 (MERS-CoV; [8]): 0.08 µM
EC50 (MHV-1): 0.08 µM
EC50 (FIPV): 0.07 µM
CC50 at 72 h [2]: > 100 µM

CC(C)C[C@H](NC(=O)OC1CCC(F)(F)CC1)C(=O)N[C@@H](C[C@@H]1CCNC1=O)C(O)S(=O)(=O)[O-].[Na+] (stereo partly drawn) [Compound 7h (Scheme 1), sodium (2S)-2-((S)-2-((((4,4-difluorocyclohexyl)oxy)carbonyl)amino)-4-methylpentan-amido)-1-hydroxy-3-((S)-2-oxopyrrolidin-3-yl)propane-1-sulfonate]
IC50 (3CLpro of MERS-CoV; [7]): 0.08 µM
IC50 (3CLpro of SARS-CoV): 2.2 µM
EC50 values against MERS-CoV in cell culture (in words) (MERS-CoV): submicromolar
EC50 (MERS-CoV; [8]): 0.21 µM
EC50 (MHV-1): 0.11 µM
EC50 (FIPV): 0.12 µM
CC50 at 72 h [2]: > 100 µM

CC(C)C[C@H](NC(=O)OCC1CCC(F)(F)CC1)C(=O)N[C@@H](C[C@@H]1CCNC1=O)C(O)S(=O)(=O)O (stereo partly drawn) [Compound 7j (Scheme 1), sodium (2S)-2-((S)-2-((((4,4-difluorocyclohexyl)methoxy)carbonyl)amino)-4-methylpentan-amido)-1-hydroxy-3-((S)-2-oxopyrrolidin-3-yl)propane-1-sulfonate]
IC50 (3CLpro of MERS-CoV; [7]): 0.1 µM
IC50 (3CLpro of SARS-CoV): 1.1 µM
EC50 (MHV-1): 0.16 µM
EC50 (FIPV): 0.07 µM
CC50 at 72 h [2]: > 100 µM

((1s,4S)-4-Propylcyclohexyl) methyl-d2 ((2S)-4-methyl-1-oxo-1-(((2S)-1-oxo-3-(2-oxopyrrolidin-3-yl) propan-2-yl) amino) pentan-2-yl) carbamate [Compound 9b]
CC50 [3]: > 100 µM

Sodium (2S)-1-hydroxy-2-((S)-4-methyl-2-(((((1s,4S)-4-propylcyclohexyl) methoxy-d2) carbonyl) amino) pentanamido)-3-(2-oxopyrrolidin-3-yl) propane-1-sulfonate [Compound 9c]
CC50 [3]: > 100 µM

Sodium (2S)-1-hydroxy-2-((S)-4-methyl-2-(((((1s,4S)-4-propylcyclohexyl)oxy)carbonyl) amino)pentanamido)-3-((S)-2-oxopyrrolidin-3-yl)propane-1-sulfonate [Compound 3c]
CC50 [3]: > 100 µM

Sodium (2S)-2-((S)-2-((((4,4-difluorocyclohexyl) methoxy-d2) carbonyl) amino)-4-methylpentanamido)-1-hydroxy-3-(2-oxopyrrolidin-3-yl) propane-1-sulfonate [Compound 11c]
CC50 [3]: > 100 µM
